Laboratory results as given in US20170239323A1, “ORITAVANCIN FORMULATIONS” (The Medicines Company, priority 2016, published 2017).

Experiments:
[1] = radiolabeled PK study ADME-rpt-7-053r95; cited from earlier work
[2] = Reconstituted oritavancin/HPCD solution diluted in 0.9% saline: pH and observation for precipitation; assay type: physicochemical; conditions: for pH: RT
[3] = 20% w/v HPCD reconstitution diluted to 5 mg/mL in 0.9% saline, rechecked one month later
[4] = 50% HPCD reconstitution diluted to 5 mg/mL in 0.9% saline, rechecked one month later

For CN[C@H](CC(C)C)C(=O)N[C@H]1C(=O)N[C@@H](CC(N)=O)C(=O)N[C@H]2C(=O)N[C@H]3C(=O)N[C@H](C(=O)N[C@H](C(=O)O)c4cc(O)cc(O)c4-c4cc3ccc4O)[C@H](O[C@H]3C[C@](C)(N)[C@@H](O)[C@H](C)O3)c3ccc(c(Cl)c3)Oc3cc2cc(c3O[C@@H]2O[C@H](CO)[C@@H](O)[C@H](O)[C@H]2O[C@H]2C[C@](C)(NCc3ccc(-c4ccc(Cl)cc4)cc3)[C@@H](O)[C@H](C)O2)Oc2ccc(cc2Cl)[C@H]1O [Oritavancin], the “plasma AUC relative to whole blood AUC” value [1] is listed as 1.59 ×, the “whole blood AUC as percentage of plasma AUC” value [1] is listed as 62.8% and the pH ([2]; 20% w/v HPCD reconstitution diluted in 0.9% saline: oritavancin 5 mg/mL, HPCD 2% w/v, 0 hr) is listed as 4.17. For the same molecule, the pH ([2]; 20% w/v HPCD reconstitution diluted in 0.9% saline: oritavancin 5 mg/mL, HPCD 2% w/v, 0.08 hr) was 4.17, the pH ([2]; 20% w/v HPCD reconstitution diluted in 0.9% saline: oritavancin 5 mg/mL, HPCD 2% w/v, 0.5 hr) was 4.17 and the pH ([2]; 20% w/v HPCD reconstitution diluted in 0.9% saline: oritavancin 5 mg/mL, HPCD 2% w/v, 1 hr) was 4.17. The pH ([2]; 20% w/v HPCD reconstitution diluted in 0.9% saline: oritavancin 5 mg/mL, HPCD 2% w/v, 24 hr) was 4.17, the pH ([2]; 20% w/v HPCD reconstitution diluted in 0.9% saline: oritavancin 5 mg/mL, HPCD 2% w/v, 720 hr) was 4.32 and the appearance / precipitation ([2]; 20% w/v HPCD reconstitution diluted to 5 mg/mL in 0.9% saline, for 24 hours) was “remained clear and colorless without any precipitation”. The appearance [2, 3] was “clear and colorless”, the pH change [2, 3] was “increased slightly” and the appearance / precipitation ([2]; 20% w/v HPCD reconstitution diluted to 6 mg/mL in 0.9% saline) was “remained clear and colorless without any visible precipitation”. The “time for which no precipitation was observed” value ([2]; 20% w/v HPCD reconstitution pH adjusted (up to 7), diluted to 5 mg/mL in 0.9% saline) was “at least 12 hours”, the appearance ([2]; 20% w/v HPCD reconstitution, diluted to 5 mg/mL in 0.9% saline, pH 6.5 and above, for 24 hours) was “maintained clear and colorless” and the appearance / precipitation ([2]; 50% HPCD reconstitution diluted to 5 mg/mL in 0.9% saline, for 24 hours) was “remained clear and colorless without any precipitation”. The appearance [2, 4] was “clear and colorless”, the pH change [2, 4] was “increased slightly” and the pH ([2]; 50% w/v HPCD reconstitution diluted in 0.9% saline: oritavancin 5 mg/mL, HPCD 5% w/v, 0 hr) was 4.14. The pH ([2]; 50% w/v HPCD reconstitution diluted in 0.9% saline: oritavancin 5 mg/mL, HPCD 5% w/v, 0.08 hr) was 4.14, the pH ([2]; 50% w/v HPCD reconstitution diluted in 0.9% saline: oritavancin 5 mg/mL, HPCD 5% w/v, 0.5 hr) was 4.14 and the pH ([2]; 50% w/v HPCD reconstitution diluted in 0.9% saline: oritavancin 5 mg/mL, HPCD 5% w/v, 1 hr) was 4.14. For the same molecule, the pH ([2]; 50% w/v HPCD reconstitution diluted in 0.9% saline: oritavancin 5 mg/mL, HPCD 5% w/v, 24 hr) was 4.15, the pH ([2]; 50% w/v HPCD reconstitution diluted in 0.9% saline: oritavancin 5 mg/mL, HPCD 5% w/v, 720 hr) was 4.26 and the “time for which no precipitation was observed” value ([2]; 50% w/v HPCD reconstitution pH adjusted (up to 6.3), diluted to 5 mg/mL in 0.9% saline) was “at least 1 hour”. For the same molecule, the “time for which no precipitation was observed” value ([2]; 50% w/v HPCD reconstitution pH adjusted (up to 7), diluted to 5 mg/mL in 0.9% saline) was “at least 12 hours”, the appearance ([2]; 50% w/v HPCD reconstitution pH adjusted, diluted to 5 mg/mL in 0.9% saline, at 24 hours) was “Some discoloration” and the appearance ([2]; pH 5.7) was “Some discoloration”. For the same molecule, the “time for which solution maintains clarity” value ([2]; pH adjusted to pH 7 in saline using NaOH) was “at least 12 hours” and the stability in solution ([2]; reconstituted in 20% or 50% w/v HPCD, diluted into saline at 5 mg/mL) was “does not fall out of solution for at least one month”.
